{"source": "patent US8841269B2", "about": "“Polynucleotides for use in treating and diagnosing cancers” (Creighton University, priority 2010, dated 2014)", "key": {"[1]": {"system": "ER-α negative MDA-MB-231 cell line", "experiment": "MTT cell proliferation assay in MDA-MB-231", "type": "cell-based, human", "details": "MDA-MB-231, DMEM with 10% FBS", "method": "FIG. 10. The effects of let-7a, let-7b, and let-7i miRNAs on cell proliferation in ER-α negative MDA-MB-231 cell line. Cancer cell proliferation was monitored by MTT assays in the same way as in MCF7 cell line except MDA-MB-231 cells were grown in DMEM with 10% FBS.\n(§1) MTT cell proliferation assay. MCF7 cells were transfected with let-7 mimics or negative controls (60 nmol/L) in normal growth medium for 1 day, or in medium with 2.5% charcoal-stripped FBS for 2 days to exhaust endogenous estrogen, following the protocol of siPORT NeoFX Transfection Agent (Applied Biosystems). For the experiment in normal growth medium, 10^4 cells in the volume of 100 μL were seeded in a 96-well plate for 12 hours and assay lasted for another 4 days. For experiments in E2 free medium, 1.5 10^4 cells were seeded in a 96-well plate for 12 hours and then exposed to 10 nmol/L E2, or not, for up to 4 days. For both experiments, each treatment had 12 replicates on the plate. The cells were then incubated in 0.83 mg/mL 3-[4,5-dimethylthiazol-2-yl]-2,5-diphenyltetrazolium bromide (MTT) in growth medium at 37° C. for 4 h and lysed in 100 μL of DMSO at room temperature for 15 min. The absorbance in each well was measured at 490 nm by an ELx800 Absorbance Microplate Reader (Biotek). Cell proliferation was normalized to day 0."}, "MCF7 cells [2]": {"system": "MCF7 cells", "experiment": "Annexin-V binding assay for apoptosis in MCF7", "type": "cell-based, human", "details": "MCF7, after either 3 days or 6 days", "method": "Annexin-V binding assay for apoptosis. […] The staining followed the protocol of FITC Annexin V Apoptosis Detection Kit I (Cat #556547, BD Biosciences). Cell populations were analyzed with a BD FACSAria™ flow cytometer. Approximately 20,000 cells were counted for each sample."}, "pS2": {"system": "pS2", "experiment": "Immunoblot of pS2 after transfection in MCF7", "type": "cell-based, human", "details": "MCF7, mimics", "from_the_text": "(§2) Immunoblot analysis. For Western blot in FFPE tissues, an established method was followed (Addis et al., 2009, Proteomics 9:3815-23). For MCF7 cell line, let-7 mimics and negative control miRNA (60 nmol/L), or let-7 inhibitors and anti-miR negative control (60 nmol/L) were transfected following the protocol of siPORT NeoFX Transfection Agent (Applied Biosystems), The Western blot procedure was described before (Zhang et al., 2010, J Proteome Res., 9(2):980-989). Antibody information is as follows: ER-α, RB-9016-P1, Thermoscientific; Cyclin D1, sc-8396, Santa Cruz; pS2, ab80782 was Abeam; β-Actin, sc-69879, Santa Cruz."}, "ER-α mRNA": {"system": "ER-α mRNA", "experiment": "Real-time PCR of ER-α mRNA after transfection in MCF7", "type": "cell-based, human", "details": "MCF7, mimics, after 6 days", "method": "For real-time PCR on the expression of ER-α, total RNA was extracted using Trizol reagent (Invitrogen). One microgram RNA was used for cDNA synthesis following the protocol of SuperScript III First-Strand Synthesis System (Invitrogen). After 10 times dilution, 4 μL cDNA was used in a 20 μL reaction volume, which included 4 μL of 1.5 μM primers, 2 μL of 2 μM probes, and 10 μL master mix (Applied Biosystems). β-actin was the internal control. The oligos for ER-α are: forward primer, 5′-GCGGCCACGGACCAT (SEQ ID NO:17); reverse primer, 5′-[…] (SEQ ID NO:18); probe, 5′-FAM-[…]-TAMRA (SEQ ID NO:19).\n(§3) For FFPE tissues, there was the same repeat number as in microarray; for cell lines, there were three biological repeats. Each sample had three technical repeats on the PCR plate. Real-time PCR was performed on an Applied Biosystems 7900HT real-time PCR instrument. PCR was initiated by two holds of 52° C. 2 min and 94° C. 10 min each, followed by 40 cycles of 15 s at 95° C. and 1 min at 60° C."}, "ER-α": {"system": "ER-α", "experiment": "Immunoblot of ER-α after transfection in MCF7", "type": "cell-based, human", "details": "MCF7, mimics 60 nmol/L", "from_the_text": "as §2"}, "[3]": {"system": "3′ UTR of human ER-α gene", "experiment": "Luciferase reporter assay, ER-α 3′ UTR let-7 binding site in pMIR-REPORT", "type": "cell-based", "details": "MCF7 cells", "from_the_text": "Luciferase assay. A fragment of the 3′ UTR of human ER-α gene, which contains the putative let-7 target sites, was synthesized (IDT technology). With attached SpeI and HindIII restriction sites, the fragments are 48 by long. The sense strand was 5′-[…] (SEQ ID NO:39) while the antisense strand was 5′-[…] (SEQ ID NO:40). The cloning and transfection followed previous protocol (Hu et al., 2009, J Immunol 183:1617-24). Sixty nanomolar let-7 mimics, anti-let-7 inhibitors, pre-miR negative control #1 (AM17110, Ambion), or anti-miR negative control #1 (AM17010, Ambion) were transfected together with a 0.25 μg luciferase construct and a 0.25 μg β-galactosidase plasmid, which were used as a normalization reference. After 24 hour post-transfection, the luciferase activity was measured in a Veritas Microplate Luminometer (Turner Biosystems). Every treatment had 3 replicates. The luciferase activity was expressed as a fraction of negative control."}, "[4]": {"system": "estrogen response element (ERE) construct", "experiment": "ERE luciferase assay (2 ERE-tk-Luc), genomic estrogen pathway in MCF7", "type": "cell-based, human", "method": "For checking on the genomic estrogen pathway, 10^5 MCF7 cells were first seeded into each well on a 24-well plate and cultured in IMEM with 2.5% charcoal-stripped FBS for 2 days. Then the cells were transfected as described above except that the estrogen response element (ERE) construct (2 ERE-tk-Luc; obtained from Katarine Pettersson, Karolinska Institute, Stockholm) replaced the pMIR-REPORT plasmid for 1 day. After stimulation with 10 nmol/L E2 for 12 hours, luciferase activity was measured as described above."}, "cyclin D1": {"system": "cyclin D1", "experiment": "Immunoblot of cyclin D1 after transfection in MCF7", "type": "cell-based, human", "details": "MCF7, mimics", "from_the_text": "as §2"}, "MCF7 cells [5]": {"system": "MCF7 cells", "experiment": "MTT cell proliferation assay in MCF7", "type": "cell-based, human", "method": "as §1"}, "[6]": {"experiment": "Real-time PCR quantification of mature let-7 after mimic transfection in MCF7", "type": "cell-based, human", "details": "MCF7, relative quantity against RNU48", "method": "Quantitative real-time PCR. For miRNA quantification in FFPE tissues, total RNA was extracted as described above; for miRNA quantification in cell lines, total RNA was isolated using mirVana miRNA Isolation Kit (Ambion Inc.). cDNA was synthesized by using 100 ng total RNA in a reaction volume of 15 μL, by following the protocol of Taqman miRNA Reverse Transcription Kit (Applied Biosystems). After 15 times dilution, 9 μL cDNA was used for real-time PCR in a 20 μL reaction volume, including 10 μL of master mix and 1 μL Taqman probe (Applied Biosystems). This reaction system only detects mature miRNAs not pre-miRNAs. The level of each miRNA was expressed following the 2^−ΔΔCt or […] method using the small nuclear RNA, RNU48, as the internal reference.\nas §3"}}, "note": "“Also recorded” adds a separate entry of the source."}
{"substance": "let-7a: let-7a miRNA (mimic), 3′-UUGAUAUGUUGGAUGAUGGAGU-5′ (SEQ ID NO:7) (chemistry not given here; listed 3' to 5')", "values": [{"measurement": "cell growth (MTT)", "setting": "[1]", "value": "None of three miRNAs significantly inhibited cell growth"}, {"measurement": "effect on apoptosis", "setting": "MCF7 cells [2]", "value": "not significant"}, {"measurement": "expression of pS2 (protein)", "setting": "pS2; after 2 days", "value": "significantly inhibited"}, {"measurement": "protein expression of pS2", "setting": "pS2; after 6 days", "value": "affected neither"}, {"measurement": "ER-α mRNA expression", "setting": "ER-α mRNA", "value": "relieved"}, {"measurement": "expression of ER-α (protein)", "setting": "ER-α; after 2 days", "value": "significantly depressed the expression of ER-α"}, {"measurement": "expression of ER-α (protein)", "setting": "ER-α; after 6 days", "value": "modest effect"}, {"measurement": "luciferase activity, ER-α binding site in 3′UTR of luciferase", "setting": "[3]; 60 nmol/L mimics, vs negative control miRNA", "value": "decreased the luciferase activity; also recorded: significantly inhibited the luciferase activity"}, {"measurement": "luciferase activity, mutated ER-α binding sequence", "setting": "[3]; mutated sequence in 3′UTR of luciferase", "value": "abrogated the effects; also recorded: did not show inhibition"}, {"measurement": "ERE luciferase activity", "setting": "[4]; MCF7, p2 ERE-tk-Luc, 10 nmol/L E2 12 hours, p<0.01", "value": "about 60 % of negative control"}, {"measurement": "luciferase activity of the ERE construct", "setting": "[4]; MCF7 cell line", "value": "inhibit the luciferase activity of the ERE construct"}, {"measurement": "expression of cyclin D1 (protein)", "setting": "cyclin D1; after 2 days", "value": "significantly inhibited"}, {"measurement": "protein expression of cyclin D1", "setting": "cyclin D1; after 6 days", "value": "affected neither"}, {"measurement": "cell growth (MTT) with E2", "setting": "MCF7 cells [5]; MCF7, E2 free medium with addition of 10 nmol/L E2", "value": "least inhibition"}, {"measurement": "cell growth (MTT)", "setting": "MCF7 cells [5]; MCF7, E2 free medium with or without addition of 10 nmol/L E2 (FIG. 9B-D)", "value": "slightly inhibited"}, {"measurement": "cell proliferation (MTT)", "setting": "MCF7 cells [5]; MCF7, normal growth medium, 60 nmol/L", "value": "did not show a significant effect"}, {"measurement": "rank of forced expression throughout the time course", "setting": "[6]", "value": "lowest expression"}]}
